From the supplement of paper PMC10307832

Key:
Experiment in all cases: relative viability (nuclei count vs DMSO), 5 days (fraction); higher = more cells survive
[1] = compound: C1/C(=C\C2=CC=CS2)/C(=O)/C(=C/C3=CC=CS3)/C1
Method in brief: (§1)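 In 1536-well plates, lung cancer cell lines rested overnight at 37 °C before five library-drug doses (not always all listed), √10 apart, were pinned onto vehicle-anchored plates. Nuclei were counted with MetaXpress from 4× Hoechst images taken after 5 days without medium change. Viability compares treated-well with vehicle-well nuclei as a median over plates, and plates needed control CV below 25% plus at least one doubling to pass.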

TPCA-1 = compound: C1=CC(=CC=C1C2=CC(=C(S2)NC(=O)N)C(=O)N)F [TPCA-1]
Method in brief: as §1

Lestaurtinib = compound: C[C@]12O[C@H](C[C@]1(O)CO)n1c3ccccc3c3c4c(c5c6ccccc6n2c5c31)CNC4=O [Lestaurtinib]
Method in brief: as §1

TPCA-1 + Dasatinib = compound: C1=CC(=CC=C1C2=CC(=C(S2)NC(=O)N)C(=O)N)F [TPCA-1] + Cc1nc(Nc2ncc(C(=O)Nc3c(C)cccc3Cl)s2)cc(N2CCN(CCO)CC2)n1 [Dasatinib] (partner 0.075 µM)
Method in brief: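 Relative viability was taken as the ratio of nuclei in treated wells to nuclei in vehicle wells. Lung cancer cell lines in 1536-well plates received compounds by pin tool one day after seeding, either one drug alone or a fixed anchor-drug dose plus five library-drug doses (not always all listed) in √10 steps. Nuclei were counted on 4× images after 5 days of treatment, and values are medians of duplicate plates.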

| Cell Line | relative viability ([1]; 0.2 µM) | relative viability ([1]; 0.6325 µM) | relative viability ([1]; 2 µM) | relative viability ([1]; 6.325 µM) | relative viability ([1]; 20 µM) | relative viability (TPCA-1; 0.04 µM) | relative viability (TPCA-1; 0.1265 µM) | relative viability (TPCA-1; 0.4 µM) | relative viability (TPCA-1; 1.265 µM) | relative viability (TPCA-1; 4 µM) | relative viability (Lestaurtinib; 0.005 µM) | relative viability (Lestaurtinib; 0.01581 µM) | relative viability (Lestaurtinib; 0.05 µM) | relative viability (Lestaurtinib; 0.1581 µM) | relative viability (Lestaurtinib; 0.5 µM) | relative viability (TPCA-1 + Dasatinib; first compound 0.04 µM) | relative viability (TPCA-1 + Dasatinib; first compound 0.1265 µM) | relative viability (TPCA-1 + Dasatinib; first compound 0.4 µM) | relative viability (TPCA-1 + Dasatinib; first compound 1.265 µM) | relative viability (TPCA-1 + Dasatinib; first compound 4 µM) |
| --- | --- | --- | --- | --- | --- | --- | --- | --- | --- | --- | --- | --- | --- | --- | --- | --- | --- | --- | --- | --- |
| NCI-H1395 | 0.912 | 0.876 | 1.11 | 0.833 | 0.945 | 1.01 | 0.916 | 1.02 | 0.811 | 0.703 | 0.886 | 1.04 | 0.759 | 0.759 | 0.462 | 0.478 | 0.39 | 0.4 | 0.421 | 0.344 |
| NCI-H1437 | 0.984 | 0.965 | 0.949 | 0.82 | 0.974 | 1.01 | 1.01 | 1.03 | 0.971 | 0.887 | 1.03 | 1.15 | 0.914 | 0.89 | 0.835 | 0.462 | 0.368 | 0.565 | 0.408 | 0.325 |
| NCI-H1563 | 1.01 | 0.876 | 1.03 | 0.936 | 0.998 | 0.886 | 0.964 | 0.971 | 0.941 | 0.956 | 1.06 | 1.02 | 0.913 | 0.972 | 0.72 | 0.42 | 0.453 | 0.468 | 0.455 | 0.452 |
| NCI-H1623 | 0.977 | 0.865 | 1.1 | 0.903 | 0.911 | 1.13 | 0.879 | 0.962 | 1.01 | 0.763 | 0.978 | 0.962 | 0.931 | 0.884 | 0.813 | 0.523 | 0.466 | 0.576 | 0.62 | 0.336 |
| NCI-H1650 | 0.874 | 0.908 | 1.01 | 0.867 | 0.875 | 1.03 | 0.851 | 1.06 | 0.955 | 0.852 | 0.976 | 1.09 | 0.961 | 1.19 | 0.415 | 0.361 | – | 0.336 | 0.269 | 0.269 |
| NCI-H1651 | 0.978 | 1.07 | 0.985 | 0.861 | 0.949 | 1.05 | 0.921 | 0.955 | 1.01 | 0.877 | 0.989 | 1.05 | 0.81 | 1.07 | 0.69 | 0.444 | 0.382 | 0.402 | 0.395 | 0.383 |
| NCI-H1666 | 1.02 | 1.02 | 0.922 | 0.919 | 0.955 | 1.09 | 0.972 | 0.982 | 0.973 | 0.904 | 1.11 | 1.13 | 1.31 | 0.986 | 0.894 | 0.842 | 0.829 | 0.828 | 0.805 | 0.677 |
| NCI-H1734 | 1.02 | 1.01 | 1.03 | 0.891 | 0.984 | 1.17 | 0.848 | 1.1 | 1.03 | 0.553 | 0.993 | 0.956 | 0.66 | 0.563 | 0.262 | 0.508 | 0.421 | 0.492 | 0.455 | 0.41 |
| NCI-H1755 | 1.02 | 0.987 | 1.04 | 0.807 | 0.999 | 0.951 | 0.941 | 1.01 | 0.922 | 0.765 | 1.02 | 1.05 | 0.965 | 0.736 | 0.351 | 0.499 | 0.424 | 0.396 | 0.31 | 0.285 |
| NCI-H1792 | 1.03 | 1.02 | 1.09 | 0.854 | 0.955 | 1.22 | 0.894 | 0.914 | 0.568 | 0.42 | 0.744 | 1.36 | 0.504 | 0.63 | 0.433 | 0.8 | 0.715 | 0.765 | 0.678 | 0.624 |
| NCI-H1793 | 0.962 | 0.953 | 1.1 | 0.856 | 0.87 | 1.1 | 0.718 | 1.08 | 0.954 | 0.279 | 0.949 | 0.986 | 0.657 | 0.828 | 0.723 | 0.422 | – | 0.342 | 0.365 | 0.211 |
| NCI-H1915 | 1.02 | 1.04 | 0.99 | 0.93 | 0.97 | 1.1 | 0.984 | 1.05 | 0.896 | 0.608 | 1.01 | 1.05 | 0.927 | 0.642 | 0.344 | 0.322 | 0.292 | 0.33 | 0.263 | 0.243 |
| NCI-H1944 | 1.04 | 0.922 | 0.977 | 0.858 | 0.917 | 1.15 | 0.88 | 1.07 | 0.998 | 0.715 | 0.888 | 0.972 | 0.968 | 0.655 | 0.396 | 0.251 | 0.207 | 0.217 | 0.198 | 0.151 |
